Source: patent US20230218566A1, “Composition and Method for Treating Chronic Pain” (Zelira Therapeutics Operations Pty Ltd, priority 2020, published 2023)

Assay: Pharmacokinetics of THC and CBD after oral MC formulation (Example 3)
Settings: for Tmax / AUC(0-t) / Cmax / half-life: human, plasma; for dose response of Cmax and AUC0-8 with increasing doses: oral doses 2.5 to 12.5 mg
[1] = high fat meal 30 minutes before 2.5 mg dose versus fasted
[2] = oral, delay of Tmax by high fat meal, high fat meal 30 minutes before 2.5 mg dose versus fasted
[3] = po, AUC0-8, 2.5 mg: single oral dose 2.5 mg THC/2.5 mg CBD after 12 hour fast (day 1)
[4] = po, AUC0-8, 5 mg: single oral dose 5 mg THC/5 mg CBD
[5] = po, AUC0-8, 7.5 mg: single oral dose 7.5 mg THC/7.5 mg CBD
[6] = po, 2.5 mg fed: single oral dose 2.5 mg THC/2.5 mg CBD 30 minutes after high fat meal (day 8)
[7] = po, 2.5 mg: single oral dose 2.5 mg THC/2.5 mg CBD after 12 hour fast (day 1)
[8] = po, 5 mg: single oral dose 5 mg THC/5 mg CBD
[9] = po, 7.5 mg: single oral dose 7.5 mg THC/7.5 mg CBD
[10] = po, Tmax, 2.5 mg fed: single oral dose 2.5 mg THC/2.5 mg CBD 30 minutes after high fat meal (day 8)
[11] = po, Tmax, 2.5 mg: single oral dose 2.5 mg THC/2.5 mg CBD after 12 hour fast (day 1)
[12] = po, Tmax, 5 mg: single oral dose 5 mg THC/5 mg CBD
[13] = po, Tmax, 7.5 mg: single oral dose 7.5 mg THC/7.5 mg CBD
[14] = po, t½ (did not change with increasing dose), across doses 2.5 to 12.5 mg
[15] = po, t½, 2.5 mg fed: single oral dose 2.5 mg THC/2.5 mg CBD 30 minutes after high fat meal (day 8)
[16] = po, t½, 2.5 mg: single oral dose 2.5 mg THC/2.5 mg CBD after 12 hour fast (day 1)
[17] = po, t½, 5 mg: single oral dose 5 mg THC/5 mg CBD
[18] = po, t½, 7.5 mg: single oral dose 7.5 mg THC/7.5 mg CBD

Structure (SMILES): C=C(C)[C@@H]1CCC(C)=C[C@H]1c1c(O)cc(CCCCC)cc1O [CBD, cannabidiol]
- effect of high fat meal on Cmax and AUC0-8 [1]: significantly increased
- Tmax [2]: ≥ 1 h
- AUC(0-t) (po, AUC0-8, 2.5 mg fed: single oral dose 2.5 mg THC/2.5 mg CBD 30 minutes after high fat meal (day 8)): 3.67 ng·h/mL
- AUC(0-t) [3]: 1.76 ± 0.84 ng·h/mL
- AUC(0-t) [4]: 5.09 ± 1.8 ng·h/mL
- AUC(0-t) [5]: 7.47 ± 2.95 ng·h/mL
- Cmax [6]: 0.99 ± 0.45 ng/mL
- Cmax [7]: 0.62 ± 0.19 ng/mL
- Cmax [8]: 1.51 ± 0.55 ng/mL
- Cmax [9]: 2.26 ± 0.95 ng/mL
- Tmax [10]: 2.78 h
- Tmax [11]: 1.83 ± 1 h
- Tmax [12]: 1.75 ± 1.04 h
- Tmax [13]: 1.64 ± 1.18 h
- half-life [14]: 3.6 h
- half-life [15]: 2.95 ± 0.66 h
- half-life [16]: 4.25 ± 0.54 h
- half-life [17]: 4.54 ± 2.41 h
- half-life [18]: 3.47 ± 0.86 h
- dose response of Cmax and AUC0-8 with increasing doses: linear dose response relationship

Structure (SMILES): CCCCCc1cc(O)c2c(c1)OC(C)(C)[C@@H]1CCC(C)=C[C@@H]21 [THC, Δ^9-tetrahydrocannabinol]
- AUC0-8 (2.5 mg fed: single oral dose 2.5 mg THC/2.5 mg CBD 30 minutes after high fat meal (day 8)): 5.86 ± 2.07 (9) ng/mL*h
- effect of high fat meal on Cmax and AUC0-8 [1]: significantly increased
- Tmax [2]: ≥ 1 h
- AUC(0-t) [3]: 2 ± 1.38 ng·h/mL
- AUC(0-t) [4]: 6.04 ± 2.07 ng·h/mL
- AUC(0-t) [5]: 10.6 ± 3.84 ng·h/mL
- Cmax [6]: 1.52 ± 0.55 ng/mL
- Cmax [7]: 0.83 ± 0.29 ng/mL
- Cmax [8]: 2.56 ± 1.7 ng/mL
- Cmax [9]: 3.84 ± 1.62 ng/mL
- Tmax [10]: 2.78 ± 1.2 h
- Tmax [11]: 1.67 ± 1.09 h
- Tmax [12]: 2.06 ± 1.32 h
- Tmax [13]: 1.36 ± 0.63 h
- half-life [14]: 2.5 h
- half-life [15]: 2.63 ± 0.43 h
- half-life [16]: 2.6 ± 0.53 h
- half-life [17]: 2.47 ± 0.88 h
- half-life [18]: 2.41 ± 0.62 h
- dose response of Cmax and AUC0-8 with increasing doses: linear dose response relationship
